Results published in article PMC2533715, “Suppressive Effects of Selected Food Phytochemicals on CD74 Expression in NCI-N87 Gastric Carcinoma Cells” (Journal of Clinical Biochemistry and Nutrition, 2008).
Where two headings read alike, the source gives them in different places.

Key:
CD74 = assay: Cell-based ELISA for constitutive CD74 expression; parameters: species or system human
[1] = system: H. pylori-infected human gastric mucosal cells; parameters: method as in PMID 17028789; details: cited from earlier work
NF-κB [2] = system: NF-κB; parameters: method as in PMID 15589482, PMID 16317159, PMID 9521814, PMID 17420607; details: several cell lines; cited from earlier work
Cell viability (MTT) = details: human
H. pylori = details: cited from earlier work
in vitro = details: human
[3] = system: NCI-N87 gastric carcinoma cells; assay: Cell viability (MTT); details: NCI-N87 cells, 48 h
NF-κB [4] = system: NF-κB; parameters: method as in PMID 12106602; details: MKN45 gastric carcinoma cells co-cultured with H. pylori; cited from earlier work
[5] = 4 µM, 48 h, NCI-N87 cells; mean ± average deviation
[6] = 20 µM, 48 h, NCI-N87 cells; mean ± average deviation
[7] = NCI-N87 cells, 48 h; mean of duplicate experiments; unit printed in b25 only; read-out: IC50 (50% inhibitory concentration) for constitutive CD74 expression
[8] = NCI-N87 gastric carcinoma cells
[9] = 100 µM, 48 h, NCI-N87 cells; mean ± average deviation

Row | SMILES | IR (%) inhibition rate of CD74 expression (CD74; [5]) | IR (%) inhibition rate of CD74 expression (CD74; [6]) | IC50 (CD74; [7]) | CC50 at 48 h (Cell viability (MTT)) | viability at 48 h, 4 µM (Cell viability (MTT); [8]) | viability at 48 h, 20 µM (Cell viability (MTT); [8]) | viability at 48 h, 100 µM (Cell viability (MTT); [8]) | IR (%) inhibition rate of CD74 expression (CD74; [9]) | also measured
1 | O=c1c(O)c(-c2ccc(O)c(O)c2)oc2cc(O)cc(O)c12 [Quercetin] | 3.7 ± 0.0% | 51 ± 4.7% | 19.8 µM | > 100 µM | 100 ± 3% | 100 ± 3% | 51 ± 0.5% |  | IR (%) inhibition rate of CD74 expression (CD74; 20 µM, 48 h, NCI-N87 cells; mean ± average deviation; listed as quercetin): 40–65%; N-methyl-N’-nitro-N-nitrosoguanidine-induced inflammation [1]: reduced; NF-κB inhibition (NF-κB [2]): markedly inhibit
2 | O=S(=O)(O)O/N=C(/CCc1ccccc1)S[C@@H]1O[C@H](CO)[C@@H](O)[C@H](O)[C@H]1O [PEGLS, gluconasturtiin] | −11 ± 4.4% | −25 ± 1.3% | > 100 µM |  | 99 ± 1.4% | 88 ± 1.7% | 90 ± 1.4% | −13 ± 3.8% | CC50 at 48 h (Cell viability (MTT); [8]): > 100 µM
3 | COc1cc(/C=C/C(=O)O)ccc1O [Ferulic acid] | −5.1 ± 4.3% | 15 ± 5.8% | > 100 µM | > 100 µM | 96 ± 2.3% | 93 ± 0.7% | 82 ± 5.9% | 20 ± 3.8% | 
4 | C/C1=C\CC(C)(C)/C=C/C(=O)/C(C)=C/CC1 [Zerumbone] | 6.6 ± 0.8% | 57 ± 0.2% | 17.7 µM |  | 100 ± 0.4% | 77 ± 0.3% | 16 ± 1.1% |  | IR (%) inhibition rate of CD74 expression (CD74; 20 µM, 48 h, NCI-N87 cells; mean ± average deviation; listed as zerumbone): 40–65%; NF-κB inhibition (NF-κB [2]): markedly inhibit; CC50 at 48 h (Cell viability (MTT); [8]): 60.5 µM
5 | O=C(O)c1cc(O)c(O)c(O)c1 [Gallic acid] | 15 ± 2.4% | 57 ± 3.7% | 96.4 µM | > 100 µM | 97 ± 0.2% | 73 ± 2.4% | 97 ± 2.1% | 47 ± 8.3% | IR (%) inhibition rate of CD74 expression (CD74; 20 µM, 48 h, NCI-N87 cells; mean ± average deviation; listed as gallic acid): 40–65%
6 | CC(C)=CCC/C(C)=C/COc1ccc2ccc(=O)oc2c1 [Auraptene] | 2.4 ± 2.0% | 50 ± 0.4% | 19.8 µM | 59.2 µM | 96 ± 2.7% | 79 ± 4.5% | 18 ± 0.4% |  | IR (%) inhibition rate of CD74 expression (CD74; 20 µM, 48 h, NCI-N87 cells; mean ± average deviation; listed as auraptene): 40–65%; Suppression of CD74 expression (in words) (CD74; NCI-N87 cells, 48 h): significant activity; H. pylori colonization (H. pylori; in vivo): reduce
7 | S=C=NCc1ccccc1 [BITC, benzyl isothiocyanate] | –19 ± 0.6% |  | < 20 µM | 44.3 µM | 96 ± 3.4% | 56 ± 7.9% |  |  | viability at 48 h, 100 µM (in vitro): 6.1 ± 1.3%
8 | Oc1cc(O)c2c(c1)O[C@@H](c1ccc(O)c(O)c1)[C@H](O)C2 [(−)-Catechin] | −6.4 ± 2.0% | 40 ± 2.1% | 69.2 µM |  | 97 ± 2.5% | 97 ± 3.3% | 89 ± 5.9% | 65 ± 0.8% | IR (%) inhibition rate of CD74 expression (CD74; 20 µM, 48 h, NCI-N87 cells; mean ± average deviation; listed as (−)-catechin): 40–65%; Suppression of CD74 expression (in words) (CD74; NCI-N87 cells, 48 h): suppressive only at a high concentration; CC50 at 48 h (Cell viability (MTT); [8]): > 100 µM; Cytotoxicity (in words) [3]: Marginal cytotoxicity
9 | C=C[C@H](OC(C)=O)c1ccc(OC(C)=O)cc1 [ACA, 1'-acetoxychavicol acetate] | 16 ± 1.6% |  | < 20 µM |  | 92 ± 3.4% | 20 ± 0.2% | 6.1 ± 0.3% |  | CC50 at 48 h (Cell viability (MTT); [8]): 25 µM
10 | O=c1c(-c2ccc(O)cc2)coc2cc(O)cc(O)c12 [Genistein] | 8.6 ± 7.8% | 49 ± 7.2% | 20.5 µM | > 100 µM | 100 ± 0.4% | 84 ± 1.5% | 55 ± 4.6% |  | IR (%) inhibition rate of CD74 expression (CD74; 20 µM, 48 h, NCI-N87 cells; mean ± average deviation; listed as genistein): 40–65%; NF-κB activation (NF-κB [4]): decreased
11 | C[C@@H]1O[C@@H](OC[C@H]2O[C@@H](Oc3c(-c4ccc(O)c(O)c4)oc4cc(O)cc(O)c4c3=O)[C@H](O)[C@@H](O)[C@@H]2O)[C@H](O)[C@H](O)[C@H]1O [Rutin] | −4.3 ± 2.8% | −3.0 ± 0.0% | > 100 µM | > 100 µM | 97 ± 1.2% | 100 ± 1.1% | 80 ± 4.7% | 11 ± 4.5% | 
12 | O=c1cc(-c2ccc(O)c(O)c2)oc2cc(O)cc(O)c12 [Luteolin] | 4.0 ± 5.1% | 55 ± 1.2% | 18.4 µM |  | 99 ± 2.9% | 81 ± 4.7% | 61 ± 1.5% |  | IR (%) inhibition rate of CD74 expression (CD74; 20 µM, 48 h, NCI-N87 cells; mean ± average deviation; listed as luteolin): 40–65%; NF-κB inhibition (NF-κB [2]): markedly inhibit; CC50 at 48 h (in vitro): > 100 µM
13 | COc1ccc(-c2cc(=O)c3c(OC)c(OC)c(OC)c(OC)c3o2)cc1OC [Nobiletin] | 1.8 ± 2.9% | 54 ± 5.0% | 18.8 µM | > 100 µM | 96 ± 0.3% | 93 ± 0.5% | 58 ± 5% |  | IR (%) inhibition rate of CD74 expression (CD74; 20 µM, 48 h, NCI-N87 cells; mean ± average deviation; listed as nobiletin): 40–65%; Suppression of CD74 expression (in words) (CD74; NCI-N87 cells, 48 h): significant activity; NF-κB inhibition (NF-κB [2]): markedly inhibit
14 | O=C1O[C@H]([C@@H](O)CO)C(O)=C1O [Ascorbic acid] | –12 ± 3.5% | 5.4 ± 3.8% | > 100 µM | > 100 µM | 97 ± 1.7% | 94 ± 0.3% | 86 ± 5.8% | 6.8 ± 1.8% | IR (%) inhibition rate of CD74 expression (CD74; 100 µM, 48 h, NCI-N87 cells; mean ± average deviation; listed as ascorbic acid): did not suppress CD74; H. pylori colonization and subsequent inflammation (H. pylori; Mongolian gerbils): reduced
15 | COc1cc(/C=C/C(=O)CC(=O)/C=C/c2ccc(O)c(OC)c2)ccc1O [Curucumin, curcumin] | 21 ± 8.0% |  | < 20 µM |  | 89 ± 1.1% | 12 ± 1.9% | 14 ± 6.8% |  | CC50 at 48 h (in vitro): 44.3 µM
16 | C=CCCN=C=S [BUITC, butenyl isothiocyanate] | –9.0 ± 0.4% | 2.3 ± 0.8% |  | 81.5 µM | 71 ± 5.8% | 73 ± 3.3% | 44 ± 2.4% |  | IC50 (CD74; read-out: IC50 (50% inhibitory concentration) for constitutive CD74 expression; NCI-N87 cells, 48 h; mean of duplicate experiments; unit printed in b25 only): > 100 µM
17 | COc1ccc(-c2cc(=O)c3c(OC)c(OC)c(OC)c(OC)c3o2)cc1 [Tangeretin] | −3.3 ± 3.3% | 21 ± 3.1% | 39.5 µM | > 100 µM | 98 ± 2.7% | 100 ± 0.5% | 63 ± 3.1% |  | Suppression of CD74 expression (in words) (CD74; NCI-N87 cells, 48 h): significant activity
18 | C=CCC/C(=N/OS(=O)(=O)O)S[C@@H]1O[C@H](CO)[C@@H](O)[C@H](O)[C@H]1O [BUGLS, gluconapin] | –15 ± 0.0% | −19 ± 2.5% | > 100 µM |  | 88 ± 6.9% | 80 ± 3.5% | 79 ± 5.6% | 4.0 ± 1.0% | CC50 at 48 h (Cell viability (MTT); [8]): > 100 µM
19 | CC(C)=CC(=O)CC(C)c1ccc(C)cc1 (stereo not shown) [ar-Turmerone] | 22 ± 0.5% | 39 ± 1.8% | 30.8 µM | > 100 µM | 97 ± 4.1% | 100 ± 3.2% | 57 ± 1.3% |  | 
20 | Cn1c(=O)c2c(ncn2C)n(C)c1=O [Caffeine] | 10 ± 7.7% | 22 ± 6.9% | > 100 µM |  | 100 ± 2.6% | 100 ± 2.2% | 87 ± 1.9% | 41 ± 9.2% | 
21 | C[C@H]1[C@H](C)CC[C@]2(C(=O)O)CC[C@]3(C)C(=CC[C@@H]4[C@@]5(C)CC[C@H](O)C(C)(C)[C@@H]5CC[C@]43C)[C@H]12 [Ursolic acid] | 35 ± 6.1% |  | < 20 µM |  | 91 ± 1.6% | 38 ± 1.1% | 9.7% |  | CC50 at 48 h (in vitro): 35.4 µM
22 | S=C=NCCc1ccccc1 [PEITC, phenetyl isothiocyanate] | −17 ± 2.3% |  | < 20 µM | 61.3 µM |  |  |  |  | viability at 48 h, 4 µM (in vitro): 97 ± 4.8%; viability at 48 h, 20 µM (in vitro): 43 ± 1.8%; viability at 48 h, 100 µM (in vitro): 37 ± 2.2%
